The source of these data is patent US6472391B2, “Nitrogen-containing heterocyclic compounds” (Millennium Pharmaceuticals, Inc., priority 1996, dated 2002).

Each structure is given as a SMILES string.

On to `O=C(Nc1ccc(Oc2ccccc2)cc1)N1CCN(c2ccnc3c(Cl)cccc23)CC1` [Compound 412, 4-(8-Chloro-4-quinolyl)-N-(4-phenoxyphenyl)-1-piperazinecarboxamide], for which the melting point was 174 to 175 °C. As for `O=C(Nc1ccc(Oc2ccccc2)cc1)N1CCN(c2ncnc3cc([N+](=O)[O-])ccc23)CC1` [Compound 322, 4-(7-Nitro-4-quinazolinyl)-N-(4-phenoxyphenyl)-1-piperazinecarboxamide], the melting point lay within 146 to 148 °C. For `CCOc1cc2ncnc(N3CCN(C(=O)Nc4ccc(Oc5ccccc5)cc4)CC3)c2cc1F` [Compound 332, 4-(7-Ethoxy-6-fluoro-4-quinazolinyl)-N-(4-phenoxyphenyl)-1-piperazinecarboxamide] the value was 197 to 198 °C; for `COc1cc2nc(C)nc(N3CCN(C(=O)Nc4ccc(Oc5ccccc5)cc4)CC3)c2cc1OC` [Compound 391, 4-(6,7-Dimethoxy-2-methyl-4-quinazolinyl)-N-(4-phenoxyphenyl)-1-piperazinecarboxamide], 146 to 147 °C; for `COc1cc2ncnc(N3CCN(C(=S)NCc4ccc(F)cc4)CC3)c2cc1OC` [Compound 173, 4-(6,7-Dimethoxy-4-quinazolinyl)-N-(4-fluorobenzyl)-1-piperazinethiocarboxamide], 217 to 218 °C. Regarding `COc1cc2ncnc(N3CCN(C(=O)Nc4ccc(OC(C)=O)cc4)CC3)c2cc1OC` [Compound 216, N-(4-Acetoxyphenyl)-4-(6,7-dimethoxy-4-quinazolinyl)-1-piperazinecarboxamide], the melting point lay in the range of 197 to 199 °C. `CC(C)c1ccc(NC(=O)N2CCN(c3ncnc4ccc(I)cc34)CC2)cc1` [Compound 304, 4-(6-Iodo-4-quinazolinyl)-N-(4-isopropylphenyl)-1-piperazinecarboxamide]: the melting point lay within 211 to 212 °C. With `O=C(Nc1ccc(Oc2ccccc2)cc1)N1CCN(c2ncnc3cc4c(cc23)OCCO4)CC1` [Compound 372, 4-(6,7-Ethylenedioxy-4-quinazolinyl)-N-(4-phenoxyphenyl)-1-piperazinecarboxamide], the melting point lay within 227 to 228 °C. For `COc1cc2ncnc(N3CCN(C(=O)NCc4ccsc4)CC3)c2cc1OC` [Compound 258, 4-(6,7-Dimethoxy-4-quinazolinyl)-N-(3-thienylmethyl)-1-piperazinecarboxamide] the value was 178 to 179 °C.

Regarding `COc1cc2ncnc(N3CCN(C(=S)Nc4cccc(C(F)(F)F)c4)CC3)c2cc1OC` [Compound 163, 4-(6,7-Dimethoxy-4-quinazolinyl)-N-(3-trifluoromethylphenyl)-1-piperazinethiocarboxamide], the melting point was 171 to 172 °C. `COc1cc2nc(-c3ccccc3)nc(N3CCN(C(=O)Nc4ccc([N+](=O)[O-])cc4)CC3)c2cc1OC` [Compound 111, 4-(6,7-Dimethoxy-2-phenyl-4-quinazolinyl)-N-(4-nitrophenyl)-1-piperazinecarboxamide] yielded a melting point of 156 to 157 °C. As for `COc1cc2ncnc(N3CCN(C(=S)NCc4ccc(C(C)C)cc4)CC3)c2cc1OC` [Compound 154, 4-(6,7-Dimethoxy-4-quinazolinyl)-N-(4-isopropylbenzyl)-1-piperazinethiocarboxamide], the melting point fell in the range of 178 to 179 °C.

Regarding `COc1cc2ncnc(N3CCN(C(=O)Nc4ccc(C)nc4)CC3)c2cc1OC` [Compound 271, 4-(6,7-Dimethoxy-4-quinazolinyl)-N-(2-methyl-5-pyridyl)-1-piperazinecarboxamide], the melting point is 240 to 241 °C. Turning to `CCOc1cc2ncnc(N3CCN(C(=O)Nc4ccc(Oc5ccccc5)cc4)CC3)c2cc1OCC` [Compound 106, 4-(6,7-Diethoxy-4-quinazolinyl)-N-(4-phenoxyphenyl)-1-piperazinecarboxamide], the melting point was 187 to 190 °C. As to `CC(C)c1ccc(NC(=O)N2CCN(c3ncnc4ccc(F)cc34)CC2)cc1` [Compound 296, 4-(6-Fluoro-4-quinazolinyl)-N-(4-isopropylphenyl)-1-piperazinecarboxamide], the melting point fell in the range of 139 to 140 °C. `Cl.Cl.S=C(NCc1cccnc1)N1CCN(c2ccnc3ccccc23)CC1` yielded a melting point of 183 to 185 °C. Consider `O=C(Nc1ccc([N+](=O)[O-])cc1)N1CCN(c2nc(-c3ccccc3)nc3ccccc23)CC1` [Compound 110, 4-(2-Phenyl-4-quinazolinyl)-N-(4-nitrophenyl)-1-piperazinecarboxamide], for which the melting point lay within 236 to 238 °C. In turn, `COc1cc2ncnc(N3CCN(C(=O)Nc4ccccc4[N+](=O)[O-])CC3)c2cc1OC` [Compound 75, 4-(6,7-Dimethoxy-4-quinazolinyl)-N-(2-nitrophenyl)-1-piperazinecarboxamide] had a melting point of 217 to 218 °C. With `CCOC(=O)c1ccc(NC(=O)N2CCN(c3ncnc4cc(OC)c(OC)cc34)CC2)cc1` [Compound 89, 4-(6,7-dimethoxy-4-quinazolinyl)-N-(4-ethoxycarbonylphenyl)-1-piperazinecarboxamide] the figure was 242 to 246 °C; with `COc1cc2ncnc(N3CCN(C(=S)Nc4ccc(F)cc4)CC3)c2cc1OC` [Compound 37, 4-(6,7-Dimethoxy-4-quinazolinyl)-N-(4-fluorophenyl)-1-piperazinethiocarboxamide], 212 to 217 °C; with `COc1cc2ncnc(N3CCN(C(=S)Nc4ccc(C(=O)NC5CCOC5=O)cc4)CC3)c2cc1OC` (racemic) [Compound 92, (dl)-N-[4-(2,3,4,5-Tetrahydro-2-oxofuran-3-ylcarbamoyl)phenyl]-4-(6,7-dimethoxy-4-quinazolinyl)-1-piperazinethiocarboxamide], 174 to 178 °C. `COc1cc2ncnc(N3CCN(C(=O)Nc4ccc(CN5CCCCC5)cc4)CC3)c2cc1OC` [Compound 100, 4-(6,7-Dimethoxy-4-quinazolinyl)-N-[4-(piperidinomethyl)phenyl]-1-piperazinecarboxamide] displayed a melting point of 122 to 123 °C. `COC(=O)c1cc(NC(=O)N2CCN(c3ncnc4cc(OC)c(OC)cc34)CC2)cc(C(=O)OC)c1` [Compound 91, N-[3,5-Bis(methoxycarbonyl)phenyl]-4-(6,7-dimethoxy-4-quinazolinyl)-1-piperazinecarboxamide] showed a melting point of 252 to 253 °C. In turn, `COc1cc2ncnc(N3CCN(C(=S)Nc4ccc(C(C)(C)C)cc4)CC3)c2cc1OC` [Compound 22, N-(4-tert-Butylphenyl)-4-(6,7-dimethoxy-4-quinazolinyl)-1-piperazinethiocarboxamide] registered a melting point of 221 to 224 °C.

In the case of `C=Cc1ccc(NC(=S)N2CCN(c3ncnc4cc(OC)c(OC)cc34)CC2)cc1` [Compound 24, 4-(6,7-Dimethoxy-4-quinazolinyl)-N-(4-vinylphenyl)-1-piperazinethiocarboxamide], the melting point was 110 to 111 °C. `COc1cc2ncnc(N3CCN(C(=O)NCc4ccco4)CC3)c2cc1OC` [Compound 256, 4-(6,7-Dimethoxy-4-quinazolinyl)-N-furfuryl-1-piperazinecarboxamide] had a melting point of 168 to 170 °C.

With `COc1cc2ncnc(N3CCN(C(=O)Nc4ccc(F)c(Cl)c4)CC3)c2cc1OC` [Compound 193, N-(3-Chloro-4-fluorophenyl)-4-(6,7-dimethoxy-4-quinazolinyl)-1-piperazinecarboxamide], the melting point is 200 to 201 °C. In turn, `COc1cc2ncnc(N3CCN(C(=O)Nc4ccc(Cl)cc4C(F)(F)F)CC3)c2cc1OC` [Compound 48, N-[4-Chloro-2-(trifluoromethyl)phenyl]-4-(6,7-dimethoxy-4-quinazolinyl)-1-piperazinecarboxamide] gave a melting point of 189 to 190 °C. With `CCN(CC)c1ccc(NC(=S)N2CCN(c3ncnc4cc(OC)c(OC)cc34)CC2)cc1` [Compound 72, N-(4-Diethylaminophenyl)-4-(6,7-dimethoxy-4-quinazolinyl)-1-piperazinethiocarboxamide], the melting point lay in the range of 147 to 148 °C.

`COc1cc2ncnc(N3CCN(C(=O)NC(=O)c4ccccc4)CC3)c2cc1OC` [Compound 4, N-Benzoyl-4-(6,7-dimethoxy-4-quinazolinyl)-1-piperazinecarboxamide]: the melting point lay within 122 to 124 °C. On to `COc1ccc(NC(=S)N2CCN(c3ncnc4cc(OC)c(OC)cc34)CC2)cc1OC` [Compound 66, N-(3,4-Dimethoxyphenyl)-4-(6,7-dimethoxy-4-quinazolinyl)-1-piperazinethiocarboxamide], for which the melting point was in the range of 174 to 176 °C. On to `COc1cc2ncnc(N3CCN(C(=O)NS(=O)(=O)c4ccc(Cl)cc4)CC3)c2cc1OC` [Compound 43, N-(4-Chlorobenzenesulfonyl)-4-(6,7-dimethoxy-4quinazolinyl)-1-piperazinecarboxamide], for which the melting point lay in the range of 228 to 234 °C. Turning to `COc1cc2ncnc(N3CCN(C(=S)Nc4ccccn4)CC3)c2cc1OC` [Compound 262, 4-(6,7-Dimethoxy-4-quinazolinyl)-N-(2-pyridyl)-1-piperazinethiocarboxamide], the melting point was in the range of 208 to 210 °C. In turn, `COc1cc2ncnc(N3CCN(C(=O)Nc4ccc(C(C)=O)cc4)CC3)c2cc1OC` [Compound 87, N-(4-acetylphenyl)-4-(6,7-dimethoxy-4-quinazolinyl)-1-piperazinecarboxamide] came in with a melting point of 220 to 222 °C. `S=C(NCc1ccccc1)N1CCN(c2ncnc3cc(Cl)ccc23)CC1` [Compound 317, N-Benzyl-4-(7-chloro-4-quinazolinyl)-1-piperazinethiocarboxamide]: the melting point was in the range of 70 to 71 °C.

For `COc1cc2ncnc(N3CCN(C(=O)Nc4ccc(OC(C)C)cc4)CC3)c2cc1OC` [Compound 202, 4-(6,7-Dimethoxy-4-quinazolinyl)-N-(4-isopropoxyphenyl)-1-piperazinecarboxamide], the melting point was 220 to 222 °C. `COc1cc2ncnc(N3CCN(C(=S)Nc4ccncc4)CC3)c2cc1OC` [Compound 268, 4-(6,7-Dimethoxy-4-quinazolinyl)-N-(4-pyridyl)-1-piperazinethiocarboxamide] came in with a melting point of 218 to 220 °C. `COc1cc2ncnc(N3CCN(C(=O)NC4CCCCC4)CC3)c2cc1OC` [Compound 13, N-Cyclohexyl-4-(6,7-dimethoxy-4-quinazolinyl)-1-piperazinecarboxamide] had a melting point of 208 to 210 °C.
